According to ChEMBL document CHEMBL4354805, “Discovery of MK-8719, a Potent O-GlcNAcase Inhibitor as a Potential Treatment for Tauopathies” (J Med Chem, 2019):
pEC50, pIC50, pKi: −log10 of the molar value.

How the values were obtained:
[1] = Oral bioavailability in Wistar Han rat at 10 mg/kg; format: ADME, organism-based; settings: in vivo
Protein O-GlcNAcase [2] = target: T1, Protein O-GlcNAcase (Homo sapiens, UniProt O60502); assay: Inhibition of recombinant human OGA
T1 sequence (O60502 whole entry): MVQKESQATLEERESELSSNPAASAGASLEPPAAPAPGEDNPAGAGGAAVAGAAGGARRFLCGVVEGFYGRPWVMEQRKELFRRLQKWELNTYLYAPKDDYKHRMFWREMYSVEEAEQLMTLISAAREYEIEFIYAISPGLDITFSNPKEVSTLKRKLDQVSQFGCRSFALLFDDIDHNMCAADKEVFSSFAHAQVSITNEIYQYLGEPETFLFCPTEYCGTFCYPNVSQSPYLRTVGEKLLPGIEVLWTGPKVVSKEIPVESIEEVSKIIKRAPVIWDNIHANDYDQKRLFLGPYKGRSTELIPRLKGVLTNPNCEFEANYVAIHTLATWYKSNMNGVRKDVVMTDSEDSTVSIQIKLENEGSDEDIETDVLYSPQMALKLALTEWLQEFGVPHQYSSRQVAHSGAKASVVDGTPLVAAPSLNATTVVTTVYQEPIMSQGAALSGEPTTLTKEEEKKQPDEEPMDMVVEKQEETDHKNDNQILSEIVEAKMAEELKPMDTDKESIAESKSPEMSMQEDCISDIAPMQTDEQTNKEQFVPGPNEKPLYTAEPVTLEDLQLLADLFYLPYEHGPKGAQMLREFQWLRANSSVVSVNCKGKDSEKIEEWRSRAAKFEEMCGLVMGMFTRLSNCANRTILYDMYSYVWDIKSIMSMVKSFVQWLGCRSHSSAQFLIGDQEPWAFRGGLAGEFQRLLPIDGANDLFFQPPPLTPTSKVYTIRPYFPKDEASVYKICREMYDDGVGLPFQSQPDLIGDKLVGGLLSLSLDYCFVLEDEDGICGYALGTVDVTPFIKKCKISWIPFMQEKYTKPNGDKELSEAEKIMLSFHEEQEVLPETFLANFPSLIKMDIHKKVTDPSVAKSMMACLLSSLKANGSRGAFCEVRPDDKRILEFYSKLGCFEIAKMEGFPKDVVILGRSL

[3] = Clearance in Wistar Han rat at 2 mg/kg, iv; format: ADME, organism-based; settings: in vivo
[4] = Volume of distribution at steady state in Wistar Han rat at 2 mg/kg, iv or 10 mg/kg, po; format: ADME, organism-based; settings: in vivo, read-out: Vdss
Protein O-GlcNAcase [5] = target: T2, Protein O-GlcNAcase (Rattus norvegicus, UniProt Q8VIJ5); assay: Inhibition of OGA in rat PC12 cells assessed as OGlcNAcylated protein level incubated for 24 hrs by ELISA; format: cell-based
T2 sequence (Q8VIJ5 whole entry): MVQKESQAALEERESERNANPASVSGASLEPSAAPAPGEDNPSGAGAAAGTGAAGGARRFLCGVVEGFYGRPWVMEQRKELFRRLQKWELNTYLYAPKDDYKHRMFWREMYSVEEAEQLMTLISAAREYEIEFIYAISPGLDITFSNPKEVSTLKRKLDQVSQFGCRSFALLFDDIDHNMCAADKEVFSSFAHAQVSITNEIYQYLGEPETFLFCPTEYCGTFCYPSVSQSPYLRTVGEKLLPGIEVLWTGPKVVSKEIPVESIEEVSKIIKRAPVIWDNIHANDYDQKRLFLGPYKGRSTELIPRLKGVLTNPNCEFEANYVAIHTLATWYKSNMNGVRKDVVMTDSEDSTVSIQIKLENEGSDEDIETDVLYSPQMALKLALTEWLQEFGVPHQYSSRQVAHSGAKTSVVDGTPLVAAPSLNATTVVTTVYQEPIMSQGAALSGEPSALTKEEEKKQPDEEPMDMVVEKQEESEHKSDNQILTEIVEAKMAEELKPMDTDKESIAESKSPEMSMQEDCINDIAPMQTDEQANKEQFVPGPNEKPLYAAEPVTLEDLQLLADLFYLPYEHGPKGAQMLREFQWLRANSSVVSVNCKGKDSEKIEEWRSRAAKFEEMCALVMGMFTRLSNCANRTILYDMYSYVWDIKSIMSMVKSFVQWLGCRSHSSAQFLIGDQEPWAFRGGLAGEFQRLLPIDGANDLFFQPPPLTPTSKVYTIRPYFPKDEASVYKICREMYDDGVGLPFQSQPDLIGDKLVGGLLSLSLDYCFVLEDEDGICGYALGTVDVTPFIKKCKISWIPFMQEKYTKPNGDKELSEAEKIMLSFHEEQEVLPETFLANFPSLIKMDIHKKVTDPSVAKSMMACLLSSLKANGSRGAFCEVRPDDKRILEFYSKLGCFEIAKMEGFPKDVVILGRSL

[6] = AUCN in Wistar Han rat at 10 mg/kg, po; format: ADME, organism-based; settings: in vivo
[7] = Half life in Wistar Han rat at 2 mg/kg, iv; format: ADME, organism-based; settings: in vivo
[8] = target: T3, Beta-hexosaminidase subunit beta (Homo sapiens, UniProt P07686); assay: Inhibition of human beta hexosaminidase assessed as inhibitory constant using 4-methylumbelliferyl N-acetyl-beta-D-glucosaminide dihydrate as substrate measured every 60 sec for 45 mins by fluorescence spectrophotometry
T3 sequence (P07686 whole entry): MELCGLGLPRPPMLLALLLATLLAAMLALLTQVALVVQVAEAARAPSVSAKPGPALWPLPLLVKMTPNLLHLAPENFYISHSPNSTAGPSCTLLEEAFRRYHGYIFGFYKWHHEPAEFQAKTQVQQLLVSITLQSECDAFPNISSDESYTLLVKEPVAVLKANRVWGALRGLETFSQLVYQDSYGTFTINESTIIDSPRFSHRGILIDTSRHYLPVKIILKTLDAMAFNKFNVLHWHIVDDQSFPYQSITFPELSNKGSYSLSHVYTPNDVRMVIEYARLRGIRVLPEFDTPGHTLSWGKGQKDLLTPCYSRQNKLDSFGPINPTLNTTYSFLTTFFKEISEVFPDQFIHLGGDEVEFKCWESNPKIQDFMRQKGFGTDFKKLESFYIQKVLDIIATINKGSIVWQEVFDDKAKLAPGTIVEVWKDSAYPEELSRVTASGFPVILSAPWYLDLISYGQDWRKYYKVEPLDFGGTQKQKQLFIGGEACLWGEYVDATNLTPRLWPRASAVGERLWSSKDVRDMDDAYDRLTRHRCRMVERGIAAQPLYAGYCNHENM

Cytochrome P450 2C9 = Cytochrome P450 2C9 (Homo sapiens, UniProt P11712); assay: Inhibition of CYP2C9 (unknown origin); format: ADME
Cytochrome P450 2C9, sequence (P11712 whole entry): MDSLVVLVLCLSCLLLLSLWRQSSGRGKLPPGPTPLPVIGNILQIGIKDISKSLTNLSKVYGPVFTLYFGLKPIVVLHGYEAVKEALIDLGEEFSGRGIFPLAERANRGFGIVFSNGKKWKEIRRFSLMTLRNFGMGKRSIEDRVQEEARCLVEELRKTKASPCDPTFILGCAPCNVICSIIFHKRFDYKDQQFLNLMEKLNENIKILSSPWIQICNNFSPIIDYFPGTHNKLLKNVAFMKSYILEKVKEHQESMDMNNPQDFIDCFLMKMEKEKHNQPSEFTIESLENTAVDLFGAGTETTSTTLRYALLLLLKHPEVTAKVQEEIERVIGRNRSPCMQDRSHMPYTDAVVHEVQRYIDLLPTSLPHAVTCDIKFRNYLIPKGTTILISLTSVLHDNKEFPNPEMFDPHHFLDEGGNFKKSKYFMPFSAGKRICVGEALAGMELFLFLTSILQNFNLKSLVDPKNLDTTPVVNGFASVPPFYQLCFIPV

Cytochrome P450 2D6 = Cytochrome P450 2D6 (Homo sapiens, UniProt P10635); assay: Inhibition of CYP2D6 (unknown origin); format: ADME
Cytochrome P450 2D6, sequence (P10635 whole entry): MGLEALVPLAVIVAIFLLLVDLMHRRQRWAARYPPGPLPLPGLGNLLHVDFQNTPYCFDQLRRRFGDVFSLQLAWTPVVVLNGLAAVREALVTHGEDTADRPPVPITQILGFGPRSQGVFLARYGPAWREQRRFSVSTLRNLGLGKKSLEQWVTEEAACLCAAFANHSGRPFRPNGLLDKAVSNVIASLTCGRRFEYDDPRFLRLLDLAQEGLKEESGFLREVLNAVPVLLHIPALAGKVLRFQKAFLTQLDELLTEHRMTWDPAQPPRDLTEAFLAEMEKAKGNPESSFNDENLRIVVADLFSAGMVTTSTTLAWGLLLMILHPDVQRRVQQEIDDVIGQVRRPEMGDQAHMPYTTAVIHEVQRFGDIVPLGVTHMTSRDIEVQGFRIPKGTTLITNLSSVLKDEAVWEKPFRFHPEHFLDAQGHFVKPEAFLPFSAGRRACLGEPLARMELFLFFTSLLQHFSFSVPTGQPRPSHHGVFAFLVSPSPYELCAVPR

MDR1 = assay: Apparent permeability in pig LLC-PK1 cells transfected with MDR1; format: ADME, cell-based, Sus scrofa
[9] = target: T4, Nuclear receptor subfamily 1 group I member 2 (Homo sapiens, UniProt O75469); assay: Activation of PXR (unknown origin) assessed as CYP3A4 induction
T4 sequence (O75469 whole entry): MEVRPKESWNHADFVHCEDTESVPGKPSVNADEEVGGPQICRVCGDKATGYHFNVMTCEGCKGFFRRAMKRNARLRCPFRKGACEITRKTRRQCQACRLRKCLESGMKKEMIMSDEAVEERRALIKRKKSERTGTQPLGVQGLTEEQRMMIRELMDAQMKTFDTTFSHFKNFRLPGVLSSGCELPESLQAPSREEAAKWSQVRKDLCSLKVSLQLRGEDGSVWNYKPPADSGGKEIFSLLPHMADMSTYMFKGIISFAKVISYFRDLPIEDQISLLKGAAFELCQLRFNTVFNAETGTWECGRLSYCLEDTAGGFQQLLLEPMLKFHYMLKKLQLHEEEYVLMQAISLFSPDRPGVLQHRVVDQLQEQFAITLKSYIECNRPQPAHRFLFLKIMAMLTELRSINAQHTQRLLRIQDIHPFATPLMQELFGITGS

[10] = target: Voltage-dependent L-type calcium channel subunit alpha-1C (Homo sapiens, UniProt Q13936); assay: Inhibition of Cav1.2 (unknown origin)
Voltage-dependent L-type calcium channel subunit alpha-1C, sequence (Q13936 whole entry): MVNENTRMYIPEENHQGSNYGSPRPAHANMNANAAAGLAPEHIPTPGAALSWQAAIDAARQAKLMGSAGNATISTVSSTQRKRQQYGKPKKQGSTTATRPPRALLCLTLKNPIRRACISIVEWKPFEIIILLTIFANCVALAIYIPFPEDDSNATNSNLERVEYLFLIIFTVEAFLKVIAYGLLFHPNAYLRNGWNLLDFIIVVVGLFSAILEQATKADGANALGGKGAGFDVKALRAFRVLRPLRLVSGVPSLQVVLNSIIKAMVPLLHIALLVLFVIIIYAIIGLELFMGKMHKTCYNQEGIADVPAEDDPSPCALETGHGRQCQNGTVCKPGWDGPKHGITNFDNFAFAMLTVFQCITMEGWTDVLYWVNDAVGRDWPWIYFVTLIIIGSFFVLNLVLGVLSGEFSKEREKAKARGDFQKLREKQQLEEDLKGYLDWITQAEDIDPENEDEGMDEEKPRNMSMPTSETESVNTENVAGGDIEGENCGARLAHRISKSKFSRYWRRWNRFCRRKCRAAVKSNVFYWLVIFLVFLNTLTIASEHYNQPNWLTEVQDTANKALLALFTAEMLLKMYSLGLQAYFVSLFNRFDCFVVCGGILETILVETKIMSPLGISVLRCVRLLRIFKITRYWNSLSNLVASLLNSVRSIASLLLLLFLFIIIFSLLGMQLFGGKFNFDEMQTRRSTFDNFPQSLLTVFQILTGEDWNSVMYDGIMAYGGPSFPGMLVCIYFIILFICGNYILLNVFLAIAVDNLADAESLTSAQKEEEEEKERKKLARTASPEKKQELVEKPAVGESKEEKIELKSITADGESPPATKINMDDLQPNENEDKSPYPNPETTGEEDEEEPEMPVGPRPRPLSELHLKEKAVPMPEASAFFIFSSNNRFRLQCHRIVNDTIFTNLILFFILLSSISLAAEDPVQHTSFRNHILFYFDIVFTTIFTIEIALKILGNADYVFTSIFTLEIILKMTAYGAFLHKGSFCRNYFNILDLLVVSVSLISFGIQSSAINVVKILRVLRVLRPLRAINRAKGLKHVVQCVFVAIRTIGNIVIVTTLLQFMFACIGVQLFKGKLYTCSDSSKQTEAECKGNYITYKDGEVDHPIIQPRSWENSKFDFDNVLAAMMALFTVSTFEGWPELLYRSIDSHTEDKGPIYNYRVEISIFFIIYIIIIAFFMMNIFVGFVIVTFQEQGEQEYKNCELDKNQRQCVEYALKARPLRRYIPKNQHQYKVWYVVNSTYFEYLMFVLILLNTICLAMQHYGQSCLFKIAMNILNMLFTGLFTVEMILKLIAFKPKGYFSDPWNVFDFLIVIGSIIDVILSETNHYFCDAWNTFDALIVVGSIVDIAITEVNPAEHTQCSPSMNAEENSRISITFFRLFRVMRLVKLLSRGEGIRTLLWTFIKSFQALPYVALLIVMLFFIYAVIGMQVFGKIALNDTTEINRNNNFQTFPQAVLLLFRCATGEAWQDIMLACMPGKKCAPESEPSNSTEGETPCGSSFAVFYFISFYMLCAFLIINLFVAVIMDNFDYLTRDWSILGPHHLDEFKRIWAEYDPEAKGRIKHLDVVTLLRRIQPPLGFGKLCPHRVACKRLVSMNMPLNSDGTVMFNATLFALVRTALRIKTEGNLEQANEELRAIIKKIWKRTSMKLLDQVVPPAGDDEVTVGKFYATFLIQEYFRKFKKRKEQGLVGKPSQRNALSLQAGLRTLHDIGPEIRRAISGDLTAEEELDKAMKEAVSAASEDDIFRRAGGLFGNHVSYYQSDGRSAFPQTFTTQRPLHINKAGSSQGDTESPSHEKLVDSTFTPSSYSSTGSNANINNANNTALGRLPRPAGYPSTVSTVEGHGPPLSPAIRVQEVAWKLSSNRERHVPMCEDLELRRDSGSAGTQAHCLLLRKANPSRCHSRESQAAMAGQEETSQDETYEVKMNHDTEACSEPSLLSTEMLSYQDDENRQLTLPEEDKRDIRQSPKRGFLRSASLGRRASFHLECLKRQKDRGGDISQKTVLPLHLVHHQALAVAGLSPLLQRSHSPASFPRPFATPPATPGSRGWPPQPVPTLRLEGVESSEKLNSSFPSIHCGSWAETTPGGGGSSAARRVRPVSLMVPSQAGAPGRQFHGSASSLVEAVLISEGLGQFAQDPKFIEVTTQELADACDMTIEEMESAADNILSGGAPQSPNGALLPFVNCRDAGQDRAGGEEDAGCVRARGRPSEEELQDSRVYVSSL

Cytochrome P450 3A4 = Cytochrome P450 3A4 (Homo sapiens, UniProt P08684); assay: Inhibition of CYP3A4 (unknown origin); format: ADME
Cytochrome P450 3A4, sequence (P08684 whole entry): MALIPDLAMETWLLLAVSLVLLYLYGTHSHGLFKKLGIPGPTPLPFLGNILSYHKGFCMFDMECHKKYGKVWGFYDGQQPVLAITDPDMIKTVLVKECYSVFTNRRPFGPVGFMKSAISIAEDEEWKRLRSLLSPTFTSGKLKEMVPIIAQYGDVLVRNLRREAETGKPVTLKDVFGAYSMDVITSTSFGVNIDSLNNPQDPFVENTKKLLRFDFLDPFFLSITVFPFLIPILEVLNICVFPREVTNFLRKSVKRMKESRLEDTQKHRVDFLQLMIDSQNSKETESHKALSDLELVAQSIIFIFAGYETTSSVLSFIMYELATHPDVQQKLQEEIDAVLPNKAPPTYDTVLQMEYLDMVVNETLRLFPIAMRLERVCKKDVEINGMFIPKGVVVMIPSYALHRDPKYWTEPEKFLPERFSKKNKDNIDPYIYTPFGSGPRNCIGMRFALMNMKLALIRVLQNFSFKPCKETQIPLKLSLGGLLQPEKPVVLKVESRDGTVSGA

[11] = target: Voltage-gated inwardly rectifying potassium channel KCNH2 (Homo sapiens, UniProt Q12809); assay: Displacement of MK-0499 from human ERG
Voltage-gated inwardly rectifying potassium channel KCNH2, sequence (Q12809 whole entry): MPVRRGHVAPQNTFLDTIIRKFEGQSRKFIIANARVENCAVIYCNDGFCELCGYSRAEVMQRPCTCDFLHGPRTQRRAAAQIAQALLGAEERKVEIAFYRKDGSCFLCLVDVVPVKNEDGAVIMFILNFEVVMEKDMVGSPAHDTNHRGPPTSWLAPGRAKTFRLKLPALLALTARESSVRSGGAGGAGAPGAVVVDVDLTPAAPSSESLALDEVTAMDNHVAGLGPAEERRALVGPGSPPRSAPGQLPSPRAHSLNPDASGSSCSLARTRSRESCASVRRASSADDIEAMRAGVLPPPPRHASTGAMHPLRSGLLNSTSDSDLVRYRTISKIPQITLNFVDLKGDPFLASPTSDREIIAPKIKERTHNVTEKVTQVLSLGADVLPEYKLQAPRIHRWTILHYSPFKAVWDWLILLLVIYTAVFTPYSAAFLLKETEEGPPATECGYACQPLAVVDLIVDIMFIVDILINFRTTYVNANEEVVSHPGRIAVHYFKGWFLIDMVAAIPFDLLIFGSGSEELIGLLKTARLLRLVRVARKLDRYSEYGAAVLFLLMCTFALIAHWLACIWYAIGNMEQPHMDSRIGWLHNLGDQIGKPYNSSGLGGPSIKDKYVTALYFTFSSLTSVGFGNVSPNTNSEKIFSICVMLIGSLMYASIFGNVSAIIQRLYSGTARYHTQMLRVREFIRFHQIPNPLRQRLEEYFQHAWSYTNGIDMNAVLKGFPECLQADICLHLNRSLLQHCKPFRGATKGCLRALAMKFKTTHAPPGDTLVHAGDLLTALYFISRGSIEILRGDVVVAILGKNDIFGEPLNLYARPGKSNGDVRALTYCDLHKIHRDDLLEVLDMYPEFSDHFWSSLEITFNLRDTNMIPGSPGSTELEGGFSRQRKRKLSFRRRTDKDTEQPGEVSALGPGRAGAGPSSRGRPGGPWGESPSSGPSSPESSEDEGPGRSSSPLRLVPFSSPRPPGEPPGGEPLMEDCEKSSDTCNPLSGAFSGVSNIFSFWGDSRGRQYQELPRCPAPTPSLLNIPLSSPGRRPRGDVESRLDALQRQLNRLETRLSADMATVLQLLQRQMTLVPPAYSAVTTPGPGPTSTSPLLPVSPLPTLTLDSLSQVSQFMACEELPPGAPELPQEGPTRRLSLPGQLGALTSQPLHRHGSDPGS

[12] = target: Sodium channel protein type 5 subunit alpha (Homo sapiens, UniProt Q14524); assay: Inhibition of Nav1.5 (unknown origin)
[13] = Ratio of drug uptake in rat brain to plasma at 3 mg/kg, po measured after 8 hrs; format: ADME, organism-based; settings: read-out: BPR
[14] = AUCN in Wistar Han rat at 3 mg/kg, po; format: ADME, organism-based; settings: in vivo
[15] = Drug uptake in rat brain at 3 mg/kg, po measured after 8 hrs; format: ADME, organism-based; settings: in vivo
[16] = Volume of distribution at steady state in Wistar Han rat at 2 mg/kg, iv or 3 mg/kg, po; format: ADME, organism-based; settings: in vivo, read-out: Vdss
Rattus norvegicus = assay: Elevation of O-protein in rat brain at 3 mg/kg, po measured after 8 hrs relative to control; format: functional
[17] = Oral bioavailability in Wistar Han rat at 3 mg/kg; format: ADME, organism-based; settings: in vivo

| bioavailability [1] | pKi (Protein O-GlcNAcase [2]) | clearance [3] | Vd [4] | pEC50 (Protein O-GlcNAcase [5]) | AUC/dose [6] | half-life [7] | pKi [8] | pIC50 (Cytochrome P450 2C9) | pIC50 (Cytochrome P450 2D6) | Papp (MDR1) | pEC50 [9] | pIC50 (Cytochrome P450 3A4) | Structure (SMILES) | pIC50 [10] | pIC50 [11] | pIC50 [12] | other results |
| --- | --- | --- | --- | --- | --- | --- | --- | --- | --- | --- | --- | --- | --- | --- | --- | --- | --- |
| 129% | 8.03 | 39 mL/min/kg | 2.8 L/kg | 7.48 | 2.53 µM·kg·h/mg | 1.06 h | < 5.00 | – | – | – | – | – | CNC1=N[C@@H]2C[C@H](O)[C@@H](CO)O[C@@H]2S1 | – | – | – | – |
| – | < 5.52 | – | – | – | – | – | < 5.00 | < 4.30 | < 4.30 | 7 ×10⁻⁶ cm/s | < 4.52 | < 4.30 | CCNC1=N[C@H]2[C@H](O[C@H](CO)C[C@@H]2O)S1 | < 4.52 | < 4.52 | < 4.52 | – |
| 96% | 8.48 | 53.6 mL/min/kg | 2.88 L/kg | 7.55 | 1.15 µM·kg·h/mg | 1.63 h | < 5.00 | – | – | – | – | – | OC[C@H]1O[C@@H]2SC(N3CCC3)=N[C@@H]2[C@@H](O)[C@@H]1O | – | – | – | – |
| – | < 5.52 | – | – | – | – | – | < 5.00 | < 4.30 | < 4.30 | – | < 4.52 | < 4.30 | CCNC1=N[C@H]2[C@H](O[C@H](CO)C(F)[C@@H]2O)S1 (some centres not stated) | < 4.52 | < 4.52 | < 4.52 | – |
| – | 8.28 | 72.6 mL/min/kg | – | 7.38 | – | 3.89 h | < 5.00 | – | – | 14 ×10⁻⁶ cm/s | – | – | CCCNC1=N[C@@H]2[C@@H](O)[C@H](O)[C@@H](C(F)F)O[C@@H]2S1 | – | – | – | Kp at 8 h [13]: 8.81; AUC/dose [14]: 0.376 µM·kg·h/mg; Drug uptake [15]: 0.193 nmol/g; Vd [16]: 5.99 L/kg; fold change (FC) (Rattus norvegicus): 1.81; bioavailability [17]: 44.8% |
| 75.3% | 7.85 | – | – | 6.92 | – | – | < 5.00 | – | – | 17 ×10⁻⁶ cm/s | – | – | CCCNC1=N[C@@H]2[C@@H](O)[C@H](O)[C@@H](CF)O[C@@H]2S1 | – | – | – | – |
